This note sets out measurements from ChEMBL document CHEMBL5154708, “Synthesis of tropane-based σ1 receptor antagonists with antiallodynic activity” (Eur J Med Chem, 2022).

The target of data set [1] is T1, Sigma intracellular receptor 2 (Rattus norvegicus, UniProt Q5U3Y7).
T1 sequence (Q5U3Y7 whole entry): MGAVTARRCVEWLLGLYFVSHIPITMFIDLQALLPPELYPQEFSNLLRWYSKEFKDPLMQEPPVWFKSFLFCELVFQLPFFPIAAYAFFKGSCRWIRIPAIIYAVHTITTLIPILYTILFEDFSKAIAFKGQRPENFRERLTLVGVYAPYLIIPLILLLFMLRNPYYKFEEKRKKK
Put plainly: Displacement of [3H]di-O-tolylguanidine from sigma 2 receptor in rat liver membrane by competitive radioligand receptor binding assay. Format: cell membranes. For orientation: Loss of bound radioactivity is the signal in a displacement assay; it reports binding, not function.

Data set [2] deals with Sigma non-opioid intracellular receptor 1 (Cavia porcellus, UniProt Q60492).
Data set [3] can be described thus: Drug metabolism in mouse liver microsomes assessed as compound oxidization incubated for 90 mins in presence of NAPDH. Format: ADME, Microsome. As to conditions: read-out: Drug metabolism.
The next data set concerns the target Albumin (Homo sapiens, UniProt P02768). Kind of data set: Protein binding in human serum albumin by HPAC analysis. Format: ADME. The following applies: read-out: PB (converted).
Data set [4] can be described thus: Distribution coefficient between n-Octanol and aqueous buffer, logD of the compound in pH 7.4 buffer by LC/MS analysis. Format: physicochemical.
The next data set relates to Mus musculus. Kind of data set: Antiallodynic activity in capsaicin-induced mechanical allodynia CD1 mouse model assessed as reduction in mechanical allodynia administered subcutaneously preincubated for 30 min followed by capsaicin injection and measured after 15 mins by Von Frey filament assay. The class given is functional, organism-based. The following applies: dose 8-32 mg/kg, route sc, time 45.0 min, DDE = dose-dependent effect.

Sequence of Sigma non-opioid intracellular receptor 1 (Q60492 whole entry): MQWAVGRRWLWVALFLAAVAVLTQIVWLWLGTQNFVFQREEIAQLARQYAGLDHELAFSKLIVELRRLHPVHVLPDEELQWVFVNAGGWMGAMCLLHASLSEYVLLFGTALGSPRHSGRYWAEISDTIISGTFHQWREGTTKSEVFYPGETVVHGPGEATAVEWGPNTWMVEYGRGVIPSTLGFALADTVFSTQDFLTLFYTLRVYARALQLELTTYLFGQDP
Sequence of Albumin (P02768 whole entry): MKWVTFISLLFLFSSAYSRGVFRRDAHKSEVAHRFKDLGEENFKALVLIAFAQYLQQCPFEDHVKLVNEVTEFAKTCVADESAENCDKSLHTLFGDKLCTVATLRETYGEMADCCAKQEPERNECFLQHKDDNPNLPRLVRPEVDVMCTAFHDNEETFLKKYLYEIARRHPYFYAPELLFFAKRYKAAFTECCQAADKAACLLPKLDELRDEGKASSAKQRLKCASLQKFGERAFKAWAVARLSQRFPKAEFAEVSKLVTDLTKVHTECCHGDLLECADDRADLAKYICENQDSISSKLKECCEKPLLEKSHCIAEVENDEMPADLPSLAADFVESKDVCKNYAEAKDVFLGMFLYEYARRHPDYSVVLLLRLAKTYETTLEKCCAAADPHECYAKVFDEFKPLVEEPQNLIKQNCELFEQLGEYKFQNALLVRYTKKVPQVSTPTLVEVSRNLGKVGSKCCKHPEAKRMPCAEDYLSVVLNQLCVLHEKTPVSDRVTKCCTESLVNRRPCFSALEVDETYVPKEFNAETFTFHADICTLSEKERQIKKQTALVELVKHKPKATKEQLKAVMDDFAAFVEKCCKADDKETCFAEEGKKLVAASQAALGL

In the case of `OC(CN1CCC(Cc2ccc(F)cc2)CC1)c1ccc(Cl)cc1` (centres undefined) [ELIPRODIL], the results for the Ki in data set [1] and in data set [2] were 71 nM and 94 nM, respectively.
For `O[C@@H](CN1[C@@H]2CC[C@H]1C/C(=C\c1ccc(F)cc1)C2)c1ccccc1`, in data set [3], the metabolised at 1.5 h was 32%. In addition, the fraction unbound on Albumin is 0.05. Moreover, in data set [4], the pH-dependent lipophilicity (logD) was 3.06. The Activity entry with Mus musculus is “Dde”. The values for the inhibitory constant (Ki) in data set [1] and in data set [2] were 10 nM and 0.8 nM, respectively.
For `O[C@@H](CN1[C@@H]2CC[C@H]1C/C(=C/c1ccc(F)cc1)C2)c1ccccc1`, the Ki in data set [1] turned out to be 29 nM; in data set [2], 18 nM.
In the same order, the values of `O[C@H](CN1[C@@H]2CC[C@H]1C/C(=C\c1ccc(F)cc1)C2)c1ccccc1` are 27 nM and 6.6 nM.
`O[C@H](CN1[C@@H]2CC[C@H]1C/C(=C/c1ccc(F)cc1)C2)c1ccccc1`: the Ki turned out to be 11 nM in data set [1] and 0.45 nM in data set [2].

One may read the Ki as a measure of affinity in units of concentration, obtained from inhibition or displacement. One may read the logD as lipophilicity at a set pH, counting ionised and neutral species. A lower logD goes with a more hydrophilic compound.
